Experimental data: PubChem BioAssay AID2060613 (Molecular Pharmacology Branch, DTP, NCI, 2025)
Where “and” joins values, the source holds several entries; their conditions need not be identical. Equal values may be shown once.

Tested on: 233499-124-R-J3-PDC complex spheroid viability
Test: Anticancer human tumor 233499-124-R-J3-PDC patient-derived colon adenocarcinoma cell line growth inhibition [CLK]
Settings: for viability, T/C: stronger effect = lower value; active = viability on the fitted dose curve at most 10% of control; inactive = the rest
Source text: A high-throughput screen of multi-cell type tumor spheroids was designed to identify active combinations of […] and targeted small molecules. Complex spheroids include a stromal component modeled by human endothelial cells (HUVEC) and fibroblasts modeled by human mesenchymal stem cells (MSCs). The concentration ranges selected for each drug and investigational agent were based upon clinically achievable concentrations if the clinical Cmax of the agent was known.
Compounds. The drugs and investigational agents: cirtuvivint (SM08502; NSC835563), CC-671 (NSC850746), vemurafenib (NSC761431), tapotoclax (NSC804041), sotorasib (NSC818433), adagrasib (NSC831453), MRTX-1133 (NSC836407), BAY2416964 (NSC825713), copanlisib (NSC816437), inavolisib (NSC800729), abemaciclib (NSC768073), osimertinib (NSC779217), entinostat (NSC756642), eltanexor (KPT-8602, NSC794443), venetoclax (NSC766270), ceralasertib (NSC777638), bortezomib (NSC756655), olaparib (NSC753686), talazoparib (NSC767125), alisertib (NSC759677), peposertib (NSC802822), gemcitabine (NSC613327), 5-fluorouracil (NSC19893), SN-38 (NSC673596), oxaliplatin (NSC266046), paclitaxel (NSC125973), and doxorubicin (NSC123127), were obtained from the National Cancer Institute (NCI) Developmental Therapeutics Program Chemical Repository. The FDA-approved anticancer drug set is available from the Developmental Therapeutics Program at https://dtp.cancer.gov/organization/dscb/obtaining/available plates.htm. […] The stock solutions were prepared in dimethyl sulfoxide (DMSO, Sigma-Aldrich, St. Louis, MO, cat. D2650), except for the platinum complexes which were prepared in saline (Quality Biological, Gaithersburg, MD, cat. 114-055-101), at 800-fold the tested concentration and stored at -70 degrees C prior to their use. All drugs and investigational agents were tested over a range starting from a high concentration at or near the clinical Cmax and decreasing in half-log increments. If the clinical Cmax for an agent had not been determined, the highest concentration tested was 10 microM.
Cell Culture. All cells were maintained in an incubator at 37 degrees C and 5% CO2 with 95% humidity. The PDC lines were cultured according to standard operating procedures established by the NCI PDMR. Briefly, all PDCs were thawed and cultured in Matrigel-coated flasks prepared with a working solution of 1X Ham's F-12 nutrient mix, without supplementation (Invitrogen, Waltham, MA, cat. 11765054), 100 U/mL penicillin-streptomycin (Invitrogen, cat. 15140122), and 2.5% Matrigel (Corning Inc., Corning, NY, cat. 354248) for the first three passages. The 947758-054-R-J2-PDC line was cultured in 6B/Colon 1A media, which includes advanced DMEM/F-12 (Thermo Fisher Scientific, cat. 12634028), 10 mM HEPES (Thermo Fisher Scientific, cat. 15630080), 1X GlutaMAX supplement (Thermo Fisher Scientific, cat. 35050061), 0.1 mg/mL primocin (InvivoGen, cat. ant-pm-2), 10% defined fetal bovine serum, heat inactivated (HyClone Laboratories Inc., cat. SH30070.03HI), 1.25 mM N-Acetyl-L-cysteine (Sigma-Aldrich, cat. A9165), 10 mM nicotinamide (Sigma-Aldrich, cat. N0636), 1X B-27 supplement (Thermo Fisher Scientific, cat. 17504044), 1X N-2 supplement (Thermo Fisher Scientific, cat. 17502048), and 10 microM Y-27632 dihydrochloride (Tocris Bioscience, cat. 1254). The 876862-298-R-J1-PDC was cultured in 6E media, which includes all 6B/Colon 1A media components plus 50% L-WRN conditioned media (ATCC, cat. CRL-3276), 50 ng/mL recombinant human EGF recombinant protein (hEGF; Thermo Fisher Scientific, cat. PHG0311), 10 ng/mL recombinant human fibroblast growth factor 10 (hGFG-10; PeproTech, cat. 100-26), 1 ng/mL recombinant human fibroblast growth factor 2 (hFGF-2; PeproTech, cat. 100-18B), and 1 µM prostaglandin E2 (PGE2; Tocris, cat. 2296). The 227483-062-R1-J1-PDC line was cultured in Panc media, containing all 6E components except hFGF-2, with the addition of 500 nM SB-431542 (Selleckchem, cat. S1067) and 10 nM gastrin (Tocris, cat. 3006). […]

[1] = curve of first compound, second compound 0.0316 µM
[2] = curve of first compound, second compound 0.1 µM
[3] = curve of first compound, second compound 0.316 µM
[4] = curve of first compound, second compound 1 µM
[5] = curve of first compound, second compound 3.16 µM
[6] = curve of first compound, second compound 10 µM
[7] = second compound 0.0316 µM, first compound 0.0316 µM
[8] = second compound 0.0316 µM, first compound 0.1 µM
[9] = second compound 0.0316 µM, first compound 0.316 µM
[10] = second compound 0.0316 µM, first compound 1 µM
[11] = second compound 0.0316 µM, first compound 3.16 µM
[12] = second compound 0.0316 µM, first compound 10 µM
[13] = second compound 0.1 µM, first compound 0.0316 µM
[14] = second compound 0.1 µM, first compound 0.1 µM
[15] = second compound 0.1 µM, first compound 0.316 µM
[16] = second compound 0.1 µM, first compound 1 µM
[17] = second compound 0.1 µM, first compound 3.16 µM
[18] = second compound 0.1 µM, first compound 10 µM
[19] = second compound 0.316 µM, first compound 0.0316 µM
[20] = second compound 0.316 µM, first compound 0.1 µM
[21] = second compound 0.316 µM, first compound 0.316 µM
[22] = second compound 0.316 µM, first compound 1 µM
[23] = second compound 0.316 µM, first compound 3.16 µM
[24] = second compound 0.316 µM, first compound 10 µM
[25] = second compound 1 µM, first compound 0.0316 µM
[26] = second compound 1 µM, first compound 0.1 µM
[27] = second compound 1 µM, first compound 0.316 µM
[28] = second compound 1 µM, first compound 1 µM
[29] = second compound 1 µM, first compound 3.16 µM
[30] = second compound 1 µM, first compound 10 µM
[31] = second compound 3.16 µM, first compound 0.0316 µM
[32] = second compound 3.16 µM, first compound 0.1 µM
[33] = second compound 3.16 µM, first compound 0.316 µM
[34] = second compound 3.16 µM, first compound 1 µM
[35] = second compound 3.16 µM, first compound 3.16 µM
[36] = second compound 3.16 µM, first compound 10 µM
[37] = second compound 10 µM, first compound 0.0316 µM
[38] = second compound 10 µM, first compound 0.1 µM
[39] = second compound 10 µM, first compound 0.316 µM
[40] = second compound 10 µM, first compound 1 µM
[41] = second compound 10 µM, first compound 3.16 µM
[42] = second compound 10 µM, first compound 10 µM
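Also: spheroids exposed to the drug combinations for seven days.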
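For viability, T/C in this document: percent viability relative to DMSO vehicle control wells taken as 100%.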

CC(CO)NC(=O)c1cc(-c2ccc(Cl)cc2)nn(-c2cnn(C)c2)c1=O (stereo not given) + CNC(=O)c1ccc(Nc2nc(OC3CCCC3)c3c(-c4ccc5nc(C)oc5c4)c[nH]c3n2)c(OC)c1
inactive: viability, T/C [7] 94.6% | viability, T/C [8] 98.2% | viability, T/C [9] 90.1% | viability, T/C [10] 94.6% | viability, T/C [11] 94% | viability, T/C [12] 88.9% | viability, T/C [13] 83.5% | viability, T/C [14] 84.7% | viability, T/C [15] 71.9% | viability, T/C [16] 80.6% | viability, T/C [17] 87.8% | viability, T/C [18] 61.9% | viability, T/C [19] 91.4% | viability, T/C [20] 64.6% | viability, T/C [21] 88.5% | viability, T/C [22] 83.9% | viability, T/C [23] 83.5% | viability, T/C [24] 66.6% | viability, T/C [25] 84.3% | viability, T/C [26] 85% | viability, T/C [27] 86.5% | viability, T/C [28] 86.7% | viability, T/C [29] 81.9% | viability, T/C [30] 79.2% | viability, T/C [31] 84.6% | viability, T/C [32] 59.3% | viability, T/C [33] 62.4% | viability, T/C [34] 83.3% | viability, T/C [35] 83.7% | viability, T/C [36] 70.8% | viability, T/C [37] 68.6% | viability, T/C [38] 73.9% | viability, T/C [39] 69.8% | viability, T/C [40] 72.2% | viability, T/C [41] 69.7% | viability, T/C [42] 64.2%
> 10000 nM: IC50 [1] | IC50 [2] | IC50 [3] | IC50 [4] | IC50 [5] | IC50 [6]

C=CC(=O)Nc1cc(Nc2nccc(-c3cn(C)c4ccccc34)n2)c(OC)cc1N(C)CCN(C)C
inactive: viability, T/C (compound 0.000949 µM) 92.5% and 102% | viability, T/C (compound 0.003 µM) 91.5% and 98.6% | viability, T/C (compound 0.00949 µM) 99.7% and 103% | viability, T/C (compound 0.03 µM) 96.9% and 87.8% | viability, T/C (compound 0.0949 µM) 86% and 93.7% | viability, T/C (compound 0.3 µM) 76.8% and 82.2%
> 300 nM: IC50 (curve of compound)

Nc1ccn(C2OC(CO)C(O)C2(F)F)c(=O)n1 (stereo not given) + CN1CCN(c2cc(C(=O)Nc3cc4cc(-c5cnn(C)c5)ccc4cn3)ccn2)CC1
313 nM: IC50 [1]
< 31.6 nM: IC50 [4] | IC50 [5] | IC50 [6]
inactive: viability, T/C [7] 80% | viability, T/C [8] 95.4% | viability, T/C [9] 49.6% | viability, T/C [10] 34.2% | viability, T/C [11] 37% | viability, T/C [12] 27.2% | viability, T/C [13] 101% | viability, T/C [14] 92.1% | viability, T/C [15] 29.6% | viability, T/C [16] 19.2% | viability, T/C [17] 23.2% | viability, T/C [18] 21.4% | viability, T/C [19] 101% | viability, T/C [20] 71% | viability, T/C [21] 24.7%
217 nM: IC50 [2]
168 nM: IC50 [3]
active: viability, T/C [22] 7.57% | viability, T/C [23] 12.1% | viability, T/C [24] 5.63% | viability, T/C [25] 1.31% | viability, T/C [26] 0.86% | viability, T/C [27] 0.41% | viability, T/C [28] 1.47% | viability, T/C [29] 0.37% | viability, T/C [30] 0.46% | viability, T/C [31] 0.7% | viability, T/C [32] 0.69% | viability, T/C [33] 0.53% | viability, T/C [34] 0.46% | viability, T/C [35] 0.48% | viability, T/C [36] 0.62% | viability, T/C [37] 0.45% | viability, T/C [38] 0.5% | viability, T/C [39] 0.68% | viability, T/C [40] 0.58% | viability, T/C [41] 0.44% | viability, T/C [42] 0.38%

C=CC(=O)N1CCN(c2nc(=O)n(-c3c(C)ccnc3C(C)C)c3nc(-c4c(O)cccc4F)c(F)cc23)C(C)C1 (stereo not given) + CNC(=O)c1ccc(Nc2nc(OC3CCCC3)c3c(-c4ccc5nc(C)oc5c4)c[nH]c3n2)c(OC)c1
> 10000 nM: IC50 [1] | IC50 [2] | IC50 [3] | IC50 [4] | IC50 [5] | IC50 [6]
inactive: viability, T/C [7] 84.8% | viability, T/C [8] 86.5% | viability, T/C [9] 94.4% | viability, T/C [10] 93.6% | viability, T/C [11] 96.3% | viability, T/C [12] 98.3% | viability, T/C [13] 79.6% | viability, T/C [14] 71.6% | viability, T/C [15] 72.6% | viability, T/C [16] 79.7% | viability, T/C [17] 85.2% | viability, T/C [18] 77.5% | viability, T/C [19] 75.9% | viability, T/C [20] 76.4% | viability, T/C [21] 75.8% | viability, T/C [22] 75.4% | viability, T/C [23] 80.5% | viability, T/C [24] 82.8% | viability, T/C [25] 81.2% | viability, T/C [26] 73.7% | viability, T/C [27] 74.3% | viability, T/C [28] 87.5% | viability, T/C [29] 90% | viability, T/C [30] 86.4% | viability, T/C [31] 68.5% | viability, T/C [32] 71.3% | viability, T/C [33] 65.7% | viability, T/C [34] 86.7% | viability, T/C [35] 80.5% | viability, T/C [36] 76.7% | viability, T/C [37] 71.2% | viability, T/C [38] 78.4% | viability, T/C [39] 69.6% | viability, T/C [40] 74.8% | viability, T/C [41] 81% | viability, T/C [42] 91.2%

Nc1ccn(C2OC(CO)C(O)C2(F)F)c(=O)n1 (stereo not given)
237 nM and 93.6 nM: IC50 (curve of compound)
inactive: viability, T/C (compound 0.0316 µM) 100% and 98% | viability, T/C (compound 0.1 µM) 80.3% and 47.1% | viability, T/C (compound 0.316 µM) 39.9% and 22.4% | viability, T/C (compound 1 µM) 33.8% and 20.9% | viability, T/C (compound 3.16 µM) 38.9% and 21.9% | viability, T/C (compound 10 µM) 41.3% and 15.8%
